{"source": "patent US20110039815A1", "about": "“MACROCYCLIC METAL COMPLEXES FOR THEIR USE AS ANTICANCER AGENTS” (priority 2005, published 2011)", "key": {"[1]": {"tested_on": "cervical cancer cell line Hela S3", "experiment": "Cell death of cervical cancer cell line Hela S3", "type": "cell-based"}, "[2]": {"details": "rat, intravenous injection, approximately 172 mg/kg during a six hour period, 0.7% saline"}}}
{"substance": "^Me3TacnRhCl3 [formula 8]", "values": [{"measurement": "anticancer activity against Hela S3", "setting": "[1]", "value": "positive"}, {"measurement": "Hela cell death rate", "setting": "[1]; 10^−2 molar preparation (1.5×10^−2 M)", "value": "approximately 93.1%"}, {"measurement": "Hela cell death rate", "setting": "[1]; 10^−3 molar preparation (1.5×10^−3 M)", "value": "approximately 90%"}, {"measurement": "complex-related toxicity or side effects", "setting": "[2]", "value": "no complex-related toxicity or side effects"}, {"measurement": "stability in water", "value": "stable"}]}
